Measured values published in US20240238425A1, “HSD17B13 Inhibitors and/or Degraders” (Pfizer Inc., priority 2022, published 2024).
Where a name gives a salt, the structure may show the parent alone.

System: HiBiT-HSD17β13 fusion protein (N-terminal HiBiT-tagged HSD17β13 isoform D) in Huh7 HiBiT-HSD17β13 OE cells
Assay: Whole-cell Huh7-HSD17B13 HiBiT assay (degrader potency and maximal efficacy, luminescence readout)
Format: cell-based, human
Settings: 24 hour incubation, geometric mean, * = geometric mean for all forms tested (parent and salt forms); for DC50: read-out: Huh7_HIBIT-HSD17β13_DC50 GMean DC50; for Huh7_HIBIT-HSD17β13_DC50 GMean Asymptote Maximum: max. concentration 1 μM
Method: Degrader potency and maximal efficacy of test compounds were determined using a whole-cell Huh7-HSD17B13 HiBiT assay, utilizing a luminescence readout. A HiBiT tag was fused to the N-terminus of HSD17β13, and therefore the HiBiT luminescence signal produced in the assay was proportional to the level of HiBiT-HSD17β13 fusion protein in a sample.
A Huh7 HiBiT-HSD17β13 OE cell line was generated using electroporation with an N-terminal HiBiT-tagged HSD17β13 isoform D overexpression plasmid, followed by geneticin selection to produce a stable pool. Clones were created with varying HiBiT signals to optimize HiBiT HSD17 β13 ratios. A clone with similar HSD17β13 expression levels as human primary hepatocytes was selected for the compound screen.
Greiner 384-well white opaque, flat bottom, tissue culture treated plates (Greiner #781080) were used for both HiBiT and CTG assays. The treated plates were spotted with 25 nL of a compound which had been serial diluted 1 in 3.162 in 100% DMSO for an 11-point concentration response curve, with duplicate points at each concentration. The maximum concentration of the compounds was 1 mM, which was later diluted with cell suspension for a maximum concentration of 1 μM). High percentage effect (HPE) wells and zero percentage effect (ZPE) wells located in columns 1 and 24 were spotted with 25 nL of DMSO (Sigma #D2650) using an ECHO Acoustic Liquid Handler (Labcyte Echo 550 Series). Each plate was performed in duplicate.
The Huh7 HiBiT-HSD17β13 OE cells were plated on top of a compound or a DMSO control at 3,000 viable cells/well in 25 μL growth media (DMEM (Gibco #10569), 10% FBS HI (Gibco #16140), 1× Pen/Strep (Gibco #15070), 1×MEM Non-Essential Amino Acids (Gibco #11140), and 300 μg/mL Geneticin (Gibco #10131) in columns 2-24 of the plates. Huh7 parental cells were plated using the same parameters in column 1 (HPE) in the same culture medium, excluding Geneticin selection. Cells were incubated overnight with the compounds for 24 hours (with lid) at 37° C. ([…]).
Each assay was conducted after a 24 hour incubation period. In the HiBiT assay plates, 25 μL of complete Nano-Glo HiBiT Lytic detection system (Promega #PRN3040), consisting of HiBiT Lytic Buffer with the addition of 1:100 LgBiT Protein and 1:50 Substrate, was added to each well. In CTG counter screen plates, 25 μL of Cell Titer-Glo Luminescent Reagent (Promega #G7573) was added to each well. Both plates were centrifuged for 2 minutes at 1000 rpm and incubated at room temperature, in the dark, for 10 minutes. Then Luminescence was read using an EnVision Plate Reader (Perkin Elmer PE2103).
The raw data from the Envision Plate Reader was expressed as relative luminescence units (RLUs) for each well of the assay plates. Using HPE and ZPE controls, the % effect was calculated for each sample well as follows: Percent effect=[(sample RLU−HPE RLU)\(ZPE RLU−HPE RLU)]*100. The percent effect was plotted versus the compound concentration and a 50% degradation ([…]) was determined using a four-parameter logistic dose response equation. The raw data was analyzed using ABase (IDBS).

| Structure (SMILES) | DC50 [nM] | Huh7_HIBIT-HSD17β13_DC50 GMean Asymptote Maximum [%] |
| --- | --- | --- |
| Cl.Cn1c(=O)n(C2CCC(=O)NC2=O)c2cccc(CN3CCN(c4ncc(-c5ccc6cn([C@H]7CC[C@H](CNC(=O)c8cc(F)c(O)c(F)c8F)CC7)nc6c5)cn4)CC3)c21 (mixture of isomers) [Example 25, N-{[(1r,4r)-4-(6-{2-[4-({1-[(3RS)-2,6-dioxopiperidin-3-yl]-3-methyl-2-oxo-2,3-dihydro-1H-benzimidazol-4-yl}methyl)piperazin-1-yl]pyrimidin-5-yl}-2H-indazol-2-yl)cyclohexyl]methyl}-2,3,5-trifluoro-4-hydroxybenzamide, hydrochloride salt] | 0.85 | 84 |
| Cl.Cn1c(=O)n(C2CCC(=O)NC2=O)c2ccc(CN3CCN(c4ncc(-c5ccc6cn([C@H]7CC[C@H](CNC(=O)c8cc(F)c(O)c(F)c8F)CC7)nc6c5)cn4)CC3)cc21 (mixture of isomers) [Example 26, N-{[(1r,4r)-4-(6-{2-[4-({1-[(3RS)-2,6-dioxopiperidin-3-yl]-3-methyl-2-oxo-2,3-dihydro-1H-benzimidazol-5-yl}methyl)piperazin-1-yl]pyrimidin-5-yl}-2H-indazol-2-yl)cyclohexyl]methyl}-2,3,5-trifluoro-4-hydroxybenzamide, hydrochloride salt] | 0.5 | 82 |
| Cn1c(=O)n(C2CCC(=O)NC2=O)c2ccc(CCCN3CCn4c(-c5ccc6cn([C@H]7CC[C@H](CNC(=O)c8cc(F)c(O)c(F)c8F)CC7)nc6c5)cnc4C3)cc21 (mixture of isomers) [Example 31, N-{[(1r,4r)-4-{6-[7-(3-{1-[(3RS)-2,6-dioxopiperidin-3-yl]-3-methyl-2-oxo-2,3-dihydro-1H-benzimidazol-5-yl}propyl)-5,6,7,8-tetrahydroimidazo[1,2-a]pyrazin-3-yl]-2H-indazol-2-yl}cyclohexyl]methyl}-2,3,5-trifluoro-4-hydroxybenzamide, trifluoroacetate salt] | 0.99 | 85 |
| Cn1c(=O)n(C2CCC(=O)NC2=O)c2ccc(CCCN3CCc4ccc(-c5ccc6cn([C@H]7CC[C@H](CNC(=O)c8cc(F)c(O)c(F)c8F)CC7)nc6c5)cc4C3)cc21 (mixture of isomers) [Example 32, N-{[(1r,4r)-4-{6-[2-(3-{1-[(3RS)-2,6-dioxopiperidin-3-yl]-3-methyl-2-oxo-2,3-dihydro-1H-benzimidazol-5-yl}propyl)-1,2,3,4-tetrahydroisoquinolin-7-yl]-2H-indazol-2-yl}cyclohexyl]methyl}-2,3,5-trifluoro-4-hydroxybenzamide, trifluoroacetate salt] | 0.3 | 83 |
| O=C1CCC(N2Cc3c(OCc4ccc(CN5CCC(CCCOc6ccc(-c7noc([C@]89CC[C@](CNC(=O)c%10cc(F)c(O)c(F)c%10F)(CC8)CC9)n7)nn6)CC5)cc4)cccc3C2=O)C(=O)N1 (mixture of isomers) [Example 36, N-({4-[3-(6-{3-[1-({4-[{{2-[(3RS)-2,6-dioxopiperidin-3-yl]-1-oxo-2,3-dihydro-1H-isoindol-4-yl}oxy)methyl]phenyl}methyl)piperi-din-4-yl]propoxy}pyridazin-3-yl)-1,2,4-oxadiazol-5-yl]bicyclo[2.2.2]octan-1-yl}methyl)-2,3,5-trifluoro-4-hydroxybenzamide, trifluoroacetate salt] | 2.2 | 86 |
| Cn1c(=O)n(C2CCC(=O)NC2=O)c2ccc(CCCCNc3ncc(-c4ccc5cn([C@H]6CC[C@H](CNC(=O)c7cc(F)c(O)c(F)c7F)CC6)nc5c4)cn3)cc21 (mixture of isomers) [Example 38, N-{[(1r,4r)-4-(6-{2-[(4-{1-[(3RS)-2,6-dioxopiperidin-3-yl]-3-methyl-2-oxo-2,3-dihydro-1H-benzimidazol-5-yl}butyl)amino]pyrimidin-5-yl}-2H-indazol-2-yl)cyclohexyl]methyl}-2,3,5-trifluoro-4-hydroxybenzamide] | 2.6 | 79 |
| Cn1c(=O)n(C2CCC(=O)NC2=O)c2ccc(CCC3CN(c4ncc(-c5ccc6cn([C@H]7CC[C@H](CNC(=O)c8cc(F)c(O)c(F)c8F)CC7)nc6c5)cn4)C3)cc21 (mixture of isomers) [Example 41, N-{[(1r,4r)-4-(6-{2-[3-(2-{1-[(3RS)-2,6-dioxopiperidin-3-yl]-3-methyl-2-oxo-2,3-dihydro-1H-benzimidazol-5-yl}ethyl)azetidin-1-yl]pyrimidin-5-yl}-2H-indazol-2-yl)cyclohexyl]methyl}-2,3,5-trifluoro-4-hydroxybenzamide] | 0.86 | 81 |

The next lines start with results.

| DC50 [nM] | Structure (SMILES) | Huh7_HIBIT-HSD17β13_DC50 GMean Asymptote Maximum [%] |
| --- | --- | --- |
| 0.82 | Cl.Cn1c(=O)n(C2CCC(=O)NC2=O)c2ccc(CCCN3CCN(c4ccc5cn([C@H]6CC[C@H](CNC(=O)c7cc(F)c(O)c(F)c7F)CC6)nc5c4)CC3)cc21 (mixture of isomers) [Example 27, N-{[(1r,4r)-4-{6-[4-(3-{1-[(3RS)-2,6-dioxopiperidin-3-yl]-3-methyl-2-oxo-2,3-dihydro-1H-benzimidazol-5-yl}propyl)piperazin-1-yl]-2H-indazol-2-yl}cyclohexyl]methyl}-2,3,5-trifluoro-4-hydroxybenzamide, hydrochloride salt] | 86 |
| 0.62 | Cn1c(=O)n(C2CCC(=O)NC2=O)c2ccc(CCCN3CC(n4cc(-c5ccc6cn([C@H]7CC[C@H](CNC(=O)c8cc(F)c(O)c(F)c8F)CC7)nc6c5)cn4)C3)cc21 (mixture of isomers) [Example 33, N-{[(1r,4r)-4-(6-{1-[1-(3-{1-[(3RS)-2,6-dioxopiperidin-3-yl]-3-methyl-2-oxo-2,3-dihydro-1H-benzimidazol-5-yl}propyl)azetidin-3-yl]-1H-pyrazol-4-yl}-2H-indazol-2-yl)cyclohexyl]methyl}-2,3,5-trifluoro-4-hydroxybenzamide] | 86 |
| 0.23 | Cn1c(=O)n(C2CCC(=O)NC2=O)c2ccc(CCCN3CCc4cc(-c5ccc6cn([C@H]7CC[C@H](CNC(=O)c8cc(F)c(O)c(F)c8F)CC7)nc6c5)ccc4C3)cc21 (mixture of isomers) [Example 34, N-{[(1r,4r)-4-{6-[2-(3-{1-[(3RS)-2,6-dioxopiperidin-3-yl]-3-methyl-2-oxo-2,3-dihydro-1H-benzimidazol-5-yl}propyl)-1,2,3,4-tetrahydroisoquinolin-6-yl]-2H-indazol-2-yl}cyclohexyl]methyl}-2,3,5-trifluoro-4-hydroxybenzamide, trifluoroacetate salt] | 81 |
| 2 | O=C1CCC(N2Cc3c(OCc4ccc(CN5CCC(CCCOc6ccc(-c7noc([C@]89CC[C@](CNC(=O)c%10cc(F)c(O)c(F)c%10)(CC8)CC9)n7)nn6)CC5)cc4)cccc3C2=O)C(=O)N1 (mixture of isomers) [Example 37, N-({4-[3-(6-{3-[1-({4-[({2-[(3RS)-2,6-dioxopiperidin-3-yl]-1-oxo-2,3-dihydro-1H-isoindol-4-yl}oxy)methyl]phenyl}methyl)piperi-din-4-yl]propoxy}pyridazin-3-yl)-1,2,4-oxadiazol-5-yl]bicyclo[2.2.2]octan-1-yl}methyl)-3,5-difluoro-4-hydroxybenzamide, trifluoroacetate salt] | 85 |
| 1.1 | Cn1c(=O)n(C2CCC(=O)NC2=O)c2ccc(CCCCCC(=O)N3CCN(c4ccc5cn([C@H]6CC[C@H](CNC(=O)c7cc(F)c(O)c(F)c7F)CC6)nc5c4)CC3)cc21 (mixture of isomers) [Example 39, N-{[(1r,4r)-4-{6-[4-(6-{1-[(3RS)-2,6-dioxopiperidin-3-yl]-3-methyl-2-oxo-2,3-dihydro-1H-benzimidazol-5-yl}hexanoyl)piperazin-1-yl]-2H-indazol-2-yl}cyclohexyl]methyl}-2,3,5-trifluoro-4-hydroxybenzamide, trifluoroacetate salt] | 86 |
